The source of these data is patent US20130096103A1, “IMIDAZOQUINOLINE COMPOUNDS” (NOVARTIS VACCINES & DIAGNOSTICS, INC., priority 2004, published 2013).

In assay [1] the test system is BALB/c mice. As to the kind of experiment: In vivo adjuvant study: Env-specific serum IgG1 ELISA. To be noted: vaccinated day 0 and 28, sera 6-7 d after 2nd vaccination. The text has this:
(§1) In phosphate-buffered saline (PBS), 25 micrograms gp120dV2EnvSF162 antigen (recombinant gp120 protein derived from sequence of HIV-1 strain SF162—the V2 domain was deleted; Pharm Res. 2004 Dec. 21(12):2148-52) as mixed with 50 microliters of MF59 adjuvant, followed the by the addition of 0, 1, 5, or 25 micrograms of a small molecule immune potentiator (SMIP) and adjusted to 100 microliters with PBS. 50 microliters of the solution was subsequently injected into both the left and right tibialis anterior muscles of female BALB/c mice (Day 0), for a total volume of 100 microliters per mouse. Four weeks later (Day 28), 50 microliters of the solution was again injected into both the left and right tibialis anterior muscles of the mouse. Seven days after the second vaccination ([…]), serum samples were collected, and a day later (day 35) spleens were removed. Serum samples were assayed by Env-specific serum IgG2a ELISA and Env-specific serum IgG1 ELISA. Spleen samples were assayed by Env-specific, cytokine-producing splenic CD4 and CD8 T cells.
(§2) BALB/c mise were immunized 2× with HIV gp120 formulated in MF59 +/− the indicated SMIPs (25 μg/ml). CpG 1826 (25 μg/ml) was used as a positive control. […] post-second serum was collected from the immunized mice and the anti-gp120-specific serum IgG2a (FIG. 4A) and IgG1 (FIG. 4B) geometric mean titers (GMT) were determined. In addition, spleens were also harvested from the immunized mice and ex vivo anti-gp120-specific T cell responses (FIG. 4C) were determined by intracellular cytokine staining for IL-2 and IFN-g. Results are percentage of antigen-specific T cells expressing the indicated cytokine.
In general terms: An ELISA detects its analyte on a solid surface through an enzyme-linked reagent.

Assay [2] concerns BALB/c mice. As to the kind of experiment: In vivo adjuvant study: Env-specific cytokine-producing splenic CD4 and CD8 T cells. To be noted: spleens 6-7 d after 2nd vaccination.
Description: as §1, §2

The subject of assay [3] is BALB/c mice. Put plainly: In vivo adjuvant study: Env-specific serum IgG2a ELISA. As to conditions: vaccinated day 0 and 28, sera 6-7 d after 2nd vaccination.
Description: as §1, §2

For assay [4] the following is noted: Pope et al. Cellular Immunology 162: 333-339 (1995); cited from earlier work.
The mark [5] stands for this setting: 1 μg added to gp120dV2/MF59 base vaccine.
Where [6] appears, read: 5 μg added to gp120dV2/MF59 base vaccine.
Where [7] appears, read: 25 μg added to gp120dV2/MF59 base vaccine.

Regarding `CCCSc1nc2c(N)nc3ccccc3c2n1CC(C)C` [Example 11, 1-(2-methylpropyl)-2-(propylthio)-1H-imidazo[4,5-c]quinolin-4-amine], the “Env-spec IgG1 titer, Geo mean” value in assay [1] (setting [5]) is reported as 35177; in assay [1] (setting [6]), 33477; in assay [1] (setting [7]), 34199. In addition, the “Env-spec CD4 (%) IFN-γ+” value in assay [2] (setting [5]), in assay [2] (setting [6]) and in assay [2] (setting [7]) was 0.04% each time. Further, the entries for the “Env-spec CD4 (%) IL-2+” value in assay [2] (setting [5]), in assay [2] (setting [6]) and in assay [2] (setting [7]) were 0.17%, 0.42% and 0.42%, respectively. For the same compound, the entries for the “Env-spec CD8 (%) IFN-γ+” value in assay [2] (setting [5]), in assay [2] (setting [6]) and in assay [2] (setting [7]) were 0.08%, 0.19% and 0.18%, respectively. In addition, the “Env-spec CD8 (%) IL2+” value in assay [2] (setting [5]) was 0.17%; in assay [2] (setting [6]), 0.22%; in assay [2] (setting [7]) it was 0.22%. Besides, the “Env-spec IgG2a titer, Geo mean” value is reported as 512 in assay [3] (setting [5]), 2922 in assay [3] (setting [6]) and 6507 in assay [3] (setting [7]).

With `CCCN(C)c1nc2c(N)nc3ccccc3c2n1CC(C)(C)O` [Example 19, 1-{4-amino-2-[methyl(propyl)amino]-1H-imidazo[4,5-c]quinolin-1-yl}-2-methylpropan-2-ol], the “Env-spec IgG1 titer, Geo mean” value was 30536 in assay [1] (setting [5]), 29502 in assay [1] (setting [6]) and 38255 in assay [1] (setting [7]). Besides, the figures for the “Env-spec CD4 (%) IFN-γ+” value in assay [2] (setting [5]), in assay [2] (setting [6]) and in assay [2] (setting [7]) were 0.07%, 0.04% and 0.29%, respectively. Further, the “Env-spec CD4 (%) IL-2+” value is 0.14% in assay [2] (setting [5]), 0.40% in assay [2] (setting [6]) and 0.76% in assay [2] (setting [7]). In addition, the results for the “Env-spec CD8 (%) IFN-γ+” value in assay [2] (setting [5]), in assay [2] (setting [6]) and in assay [2] (setting [7]) were 0.21%, 0.35% and 0.07%, respectively. Moreover, the entries for the “Env-spec CD8 (%) IL2+” value in assay [2] (setting [5]), in assay [2] (setting [6]) and in assay [2] (setting [7]) were 0.14%, 0.37% and 0.10%, respectively. In addition, the “Env-spec IgG2a titer, Geo mean” value in assay [3] (setting [5]) worked out at 1215; in assay [3] (setting [6]), 10104; in assay [3] (setting [7]), 18733.

As for `C=CCn1c(=O)n([C@@H]2O[C@H](CO)[C@@H](O)[C@H]2O)c2nc(N)[nH]c(=O)c21` [Loxoribine], the “concentration causing useful production of TNF-α” value in assay [4] was 300 µM.

Consider ODN-1826 [reference compound], for which the “Env-spec IgG1 titer, Geo mean” value in assay [1] (setting [7]) stood at 30188. Further, in assay [2] (setting [7]), the “Env-spec CD4 (%) IFN-γ+” value came out at 0.32%, the “Env-spec CD4 (%) IL-2+” value is 0.47%, the “Env-spec CD8 (%) IFN-γ+” value came to 0.15% and the “Env-spec CD8 (%) IL2+” value is 0.12%. Further, the “Env-spec IgG2a titer, Geo mean” value in assay [3] (setting [7]) is given as 201306.
